From ChEMBL document CHEMBL5465560, “Selectivity Literature for EUbOPEN Chemogenomic Library” (2024)

Tests used:
[1] = molecular target: Serine/threonine-protein kinase mTOR (Homo sapiens, UniProt P42345); experiment: Selectivity interaction (KinomeScan (DiscoverX)) EUB0001079a MTOR; details: at 1 µM
[2] = molecular target: Tyrosine-protein kinase SYK (Homo sapiens, UniProt P43405); experiment: Selectivity interaction (SelectScreen profiling (Invitrogen)) EUB0000607a SYK; details: at 2 µM
[3] = molecular target: T1, Inhibitor of nuclear factor kappa-B kinase subunit epsilon (Homo sapiens) (UniProt Q14164); experiment: Selectivity interaction (ActivX KiNativ screen (ex vivo kinase selectivity in human PBMCs)) EUB0001619a IKBKE; type: cell-based; details: PBMC, at 1 µM
T1 sequence (whole entry): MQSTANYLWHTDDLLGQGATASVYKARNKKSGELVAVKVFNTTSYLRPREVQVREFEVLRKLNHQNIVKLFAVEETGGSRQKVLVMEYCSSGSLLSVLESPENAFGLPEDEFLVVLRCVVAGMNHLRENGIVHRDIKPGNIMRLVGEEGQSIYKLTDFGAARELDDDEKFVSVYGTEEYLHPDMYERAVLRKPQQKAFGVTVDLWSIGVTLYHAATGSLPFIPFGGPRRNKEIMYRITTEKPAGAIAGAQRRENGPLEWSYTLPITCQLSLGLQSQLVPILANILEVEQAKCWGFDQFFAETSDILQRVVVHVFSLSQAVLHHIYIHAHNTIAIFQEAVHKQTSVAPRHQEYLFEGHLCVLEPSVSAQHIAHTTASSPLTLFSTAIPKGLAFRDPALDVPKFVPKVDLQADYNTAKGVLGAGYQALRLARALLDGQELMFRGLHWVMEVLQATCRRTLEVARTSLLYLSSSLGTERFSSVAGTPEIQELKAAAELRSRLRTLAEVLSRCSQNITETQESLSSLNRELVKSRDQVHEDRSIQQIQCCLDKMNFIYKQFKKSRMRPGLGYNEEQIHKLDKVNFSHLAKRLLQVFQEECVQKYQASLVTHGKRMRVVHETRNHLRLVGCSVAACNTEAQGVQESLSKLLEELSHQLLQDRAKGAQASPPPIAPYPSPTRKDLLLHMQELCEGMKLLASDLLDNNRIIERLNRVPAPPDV

[4] = molecular target: T2, Serine/threonine-protein kinase STK11 (Homo sapiens) (UniProt Q15831); experiment: Selectivity interaction (KinomeScan (DiscoverX)) EUB0000045b STK11
T2 sequence (whole entry): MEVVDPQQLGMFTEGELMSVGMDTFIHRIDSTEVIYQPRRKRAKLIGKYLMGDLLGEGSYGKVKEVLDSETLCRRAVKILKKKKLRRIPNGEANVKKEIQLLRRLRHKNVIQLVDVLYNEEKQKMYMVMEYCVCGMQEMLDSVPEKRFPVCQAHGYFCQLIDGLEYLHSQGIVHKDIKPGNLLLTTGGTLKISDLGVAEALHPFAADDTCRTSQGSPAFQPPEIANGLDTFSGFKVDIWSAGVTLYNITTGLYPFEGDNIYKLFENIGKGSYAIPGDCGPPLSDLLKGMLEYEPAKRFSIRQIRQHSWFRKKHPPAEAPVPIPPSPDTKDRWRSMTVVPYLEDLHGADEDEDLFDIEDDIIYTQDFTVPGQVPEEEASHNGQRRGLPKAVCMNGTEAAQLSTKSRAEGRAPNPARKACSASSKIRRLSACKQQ

[5] = molecular target: Serine/threonine-protein kinase PLK1 (Homo sapiens, UniProt P53350); experiment: Selectivity interaction (KinomeScan (DiscoverX)) EUB0000229b PLK1; details: at 10 µM
Serine/threonine-protein kinase PLK1, sequence (P53350 whole entry): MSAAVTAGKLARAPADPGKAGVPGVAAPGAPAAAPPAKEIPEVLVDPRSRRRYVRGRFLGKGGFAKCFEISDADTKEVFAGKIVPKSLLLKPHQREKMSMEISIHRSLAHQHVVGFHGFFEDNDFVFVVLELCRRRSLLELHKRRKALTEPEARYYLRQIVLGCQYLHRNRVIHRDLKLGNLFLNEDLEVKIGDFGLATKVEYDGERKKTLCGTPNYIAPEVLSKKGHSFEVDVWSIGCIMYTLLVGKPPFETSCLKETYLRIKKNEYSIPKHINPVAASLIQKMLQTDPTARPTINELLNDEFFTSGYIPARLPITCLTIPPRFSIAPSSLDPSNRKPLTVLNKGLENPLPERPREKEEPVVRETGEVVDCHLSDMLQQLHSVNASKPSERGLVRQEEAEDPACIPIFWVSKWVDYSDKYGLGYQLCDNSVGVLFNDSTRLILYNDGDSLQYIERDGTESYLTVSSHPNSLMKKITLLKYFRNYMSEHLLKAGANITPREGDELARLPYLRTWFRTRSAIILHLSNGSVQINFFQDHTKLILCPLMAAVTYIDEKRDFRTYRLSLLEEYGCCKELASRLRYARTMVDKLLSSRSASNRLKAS

[6] = molecular target: T3, Serine/threonine-protein kinase Nek1 (Homo sapiens) (UniProt Q96PY6); experiment: Selectivity interaction (KinomeScan (DiscoverX)) EUB0000229b NEK1; details: at 10 µM
T3 sequence (whole entry): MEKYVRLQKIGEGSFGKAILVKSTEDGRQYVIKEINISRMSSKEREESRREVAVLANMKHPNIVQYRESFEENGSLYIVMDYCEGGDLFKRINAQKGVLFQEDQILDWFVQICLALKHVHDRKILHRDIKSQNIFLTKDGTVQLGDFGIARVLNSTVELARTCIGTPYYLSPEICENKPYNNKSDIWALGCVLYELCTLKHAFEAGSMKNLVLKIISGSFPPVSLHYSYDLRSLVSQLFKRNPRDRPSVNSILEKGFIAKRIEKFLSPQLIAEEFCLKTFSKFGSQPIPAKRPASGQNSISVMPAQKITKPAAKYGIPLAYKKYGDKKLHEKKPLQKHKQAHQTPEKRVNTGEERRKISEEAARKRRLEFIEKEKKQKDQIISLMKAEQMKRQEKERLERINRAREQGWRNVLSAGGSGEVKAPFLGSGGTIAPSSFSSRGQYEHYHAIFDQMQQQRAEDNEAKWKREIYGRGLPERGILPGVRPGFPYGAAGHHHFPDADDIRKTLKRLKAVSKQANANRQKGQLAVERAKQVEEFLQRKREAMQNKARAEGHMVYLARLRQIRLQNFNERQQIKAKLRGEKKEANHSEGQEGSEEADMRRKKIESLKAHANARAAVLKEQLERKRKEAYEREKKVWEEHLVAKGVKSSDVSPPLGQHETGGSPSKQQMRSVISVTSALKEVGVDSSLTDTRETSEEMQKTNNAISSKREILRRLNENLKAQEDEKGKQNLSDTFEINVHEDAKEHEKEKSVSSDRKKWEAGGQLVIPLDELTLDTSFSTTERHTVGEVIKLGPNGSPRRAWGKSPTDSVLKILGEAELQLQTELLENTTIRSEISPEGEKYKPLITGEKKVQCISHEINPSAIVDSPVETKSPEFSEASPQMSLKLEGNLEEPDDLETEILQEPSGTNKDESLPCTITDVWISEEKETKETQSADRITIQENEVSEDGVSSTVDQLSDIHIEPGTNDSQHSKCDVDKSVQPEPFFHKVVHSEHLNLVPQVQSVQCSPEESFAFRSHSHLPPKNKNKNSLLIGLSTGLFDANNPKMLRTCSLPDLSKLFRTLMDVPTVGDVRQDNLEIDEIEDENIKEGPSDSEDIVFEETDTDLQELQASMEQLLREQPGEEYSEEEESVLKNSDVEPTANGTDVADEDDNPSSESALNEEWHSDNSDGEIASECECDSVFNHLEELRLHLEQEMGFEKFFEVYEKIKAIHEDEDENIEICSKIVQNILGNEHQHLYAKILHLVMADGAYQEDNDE

[7] = molecular target: Ephrin type-A receptor 2 (Homo sapiens) (UniProt P29317); experiment: Selectivity interaction (ProQinase) EUB0000171b EPHA2
Ephrin type-A receptor 2 (Homo sapiens), sequence (P29317 whole entry): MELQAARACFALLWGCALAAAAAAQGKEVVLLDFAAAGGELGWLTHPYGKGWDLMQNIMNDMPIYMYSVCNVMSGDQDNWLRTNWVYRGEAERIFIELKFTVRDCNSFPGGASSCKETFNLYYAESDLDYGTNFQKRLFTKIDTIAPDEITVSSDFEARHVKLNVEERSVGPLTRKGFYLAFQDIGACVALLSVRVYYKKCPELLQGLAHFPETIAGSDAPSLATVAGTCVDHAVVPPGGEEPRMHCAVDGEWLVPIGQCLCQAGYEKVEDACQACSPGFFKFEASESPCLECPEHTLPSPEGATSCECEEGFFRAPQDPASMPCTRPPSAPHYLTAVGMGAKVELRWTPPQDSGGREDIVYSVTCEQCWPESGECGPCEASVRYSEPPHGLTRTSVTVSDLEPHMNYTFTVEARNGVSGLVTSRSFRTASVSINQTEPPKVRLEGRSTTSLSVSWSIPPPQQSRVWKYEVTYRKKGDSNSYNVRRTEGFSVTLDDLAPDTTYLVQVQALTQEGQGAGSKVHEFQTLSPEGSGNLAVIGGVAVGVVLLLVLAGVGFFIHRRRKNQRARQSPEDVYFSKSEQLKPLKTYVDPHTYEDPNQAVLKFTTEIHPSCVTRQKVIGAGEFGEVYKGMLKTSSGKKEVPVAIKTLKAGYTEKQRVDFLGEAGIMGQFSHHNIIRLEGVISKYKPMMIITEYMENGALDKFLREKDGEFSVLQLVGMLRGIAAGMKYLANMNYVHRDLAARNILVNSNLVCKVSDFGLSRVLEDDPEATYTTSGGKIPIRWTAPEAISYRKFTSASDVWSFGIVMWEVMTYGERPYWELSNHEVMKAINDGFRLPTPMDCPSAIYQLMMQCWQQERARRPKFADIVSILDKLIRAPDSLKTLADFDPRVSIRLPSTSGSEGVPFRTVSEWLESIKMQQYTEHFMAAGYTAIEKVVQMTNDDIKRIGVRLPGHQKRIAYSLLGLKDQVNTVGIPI

## Nc1cnc(N2CCc3cc(S(=O)(=O)Nc4c(F)cc(Cl)cc4F)cc(N4CCCC4=O)c32)nc1 [TP-020n]
[1]
  % of control: 100%

## CNC(=O)Nc1ccc(-c2nc(N3CC4CCC(C3)O4)c3cnn(C4CCC5(CC4)OCCO5)c3n2)cc1
[2]
  % of inhibition: 1%

## N#Cc1cccc(-c2c[nH]c3ncnc(N4CCOCC4)c23)c1
[3]
  % of inhibition: 7%

## C=CC(=O)Nc1cc(-n2c(=O)ccc3cnc4ccc(-c5ccc(NS(C)(=O)=O)cc5)cc4c32)ccc1C
[4]; at 1 µM
  % of control: 79%
[4]; at 10 µM
  % of control: 100%

## COc1cc(N(C)c2ccnc3ccc(C(F)(F)F)cc23)cc(OC)c1OC
[5]
  % binding: 100%
[6]
  % binding: 78%

## C=CC(=O)Nc1cccc(C(=O)Nc2ccc(Nc3cc(-c4[nH]c(SC)nc4C)ccn3)cc2)c1
[7]; at 1 µM
  % of control: 92%
[7]; at 5 µM
  % of control: 81%
